Some targets named below: PDE-4A1 (Homo sapiens, UniProt P27815); PDE-2A3 (Homo sapiens, UniProt O00408); PDE-3A (Homo sapiens, UniProt Q14432); PDE-10A1 (Homo sapiens, UniProt Q9Y233).
What all share (assay): IMAP fluorescence polarization PDE assay, 8-point IC50
Type in all cases: biochemical

SMILES strings stand for the structures. pIC50: −log10 of the molar value.

Chain of PDE-3A (Q14432 whole entry): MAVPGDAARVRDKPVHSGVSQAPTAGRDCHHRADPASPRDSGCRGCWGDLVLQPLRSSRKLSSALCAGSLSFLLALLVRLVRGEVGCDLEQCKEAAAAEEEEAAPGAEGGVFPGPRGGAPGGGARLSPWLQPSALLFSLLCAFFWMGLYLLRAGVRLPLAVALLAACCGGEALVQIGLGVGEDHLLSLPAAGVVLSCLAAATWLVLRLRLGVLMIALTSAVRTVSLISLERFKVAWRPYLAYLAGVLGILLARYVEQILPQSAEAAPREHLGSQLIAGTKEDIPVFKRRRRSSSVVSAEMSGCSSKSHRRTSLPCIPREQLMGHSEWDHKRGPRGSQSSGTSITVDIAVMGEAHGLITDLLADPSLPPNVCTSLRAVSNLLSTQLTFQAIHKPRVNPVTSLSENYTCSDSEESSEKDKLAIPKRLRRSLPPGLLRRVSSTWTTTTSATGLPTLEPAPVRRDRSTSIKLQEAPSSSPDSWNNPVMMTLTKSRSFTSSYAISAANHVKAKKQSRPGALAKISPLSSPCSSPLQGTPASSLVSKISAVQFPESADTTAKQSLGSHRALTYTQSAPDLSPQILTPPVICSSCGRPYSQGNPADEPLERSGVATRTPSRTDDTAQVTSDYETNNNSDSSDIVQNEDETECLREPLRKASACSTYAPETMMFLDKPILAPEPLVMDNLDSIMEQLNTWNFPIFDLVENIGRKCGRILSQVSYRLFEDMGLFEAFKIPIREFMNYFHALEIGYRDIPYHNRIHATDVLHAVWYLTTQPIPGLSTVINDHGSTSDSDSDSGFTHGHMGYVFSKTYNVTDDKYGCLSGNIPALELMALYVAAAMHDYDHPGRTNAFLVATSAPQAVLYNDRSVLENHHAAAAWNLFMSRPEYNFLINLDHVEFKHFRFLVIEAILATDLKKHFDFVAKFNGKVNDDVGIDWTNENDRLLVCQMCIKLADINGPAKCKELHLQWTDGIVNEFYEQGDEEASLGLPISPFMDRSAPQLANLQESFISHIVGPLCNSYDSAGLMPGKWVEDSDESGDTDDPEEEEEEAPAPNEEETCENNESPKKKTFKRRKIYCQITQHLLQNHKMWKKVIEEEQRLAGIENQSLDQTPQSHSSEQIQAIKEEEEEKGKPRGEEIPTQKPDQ
Chain of PDE-4A1 (P27815 265-886 limits assumed): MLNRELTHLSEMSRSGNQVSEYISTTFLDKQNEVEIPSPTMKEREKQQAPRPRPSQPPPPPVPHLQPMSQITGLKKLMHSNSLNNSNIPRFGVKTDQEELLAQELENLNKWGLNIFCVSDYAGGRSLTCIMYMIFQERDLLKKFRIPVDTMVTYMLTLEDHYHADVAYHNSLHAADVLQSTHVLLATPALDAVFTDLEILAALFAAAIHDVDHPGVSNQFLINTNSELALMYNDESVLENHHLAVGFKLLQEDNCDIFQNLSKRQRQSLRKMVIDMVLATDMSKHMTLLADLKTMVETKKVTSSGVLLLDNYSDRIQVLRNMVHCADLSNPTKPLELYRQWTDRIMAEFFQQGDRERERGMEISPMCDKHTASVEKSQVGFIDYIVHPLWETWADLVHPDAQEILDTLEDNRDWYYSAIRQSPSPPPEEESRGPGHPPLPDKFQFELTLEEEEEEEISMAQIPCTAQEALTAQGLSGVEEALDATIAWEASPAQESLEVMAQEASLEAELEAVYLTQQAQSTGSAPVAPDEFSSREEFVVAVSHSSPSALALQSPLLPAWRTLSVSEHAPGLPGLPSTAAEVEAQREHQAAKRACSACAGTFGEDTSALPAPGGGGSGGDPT
Chain of PDE-10A1 (Q9Y233 1-779 isoform Q9Y233-1): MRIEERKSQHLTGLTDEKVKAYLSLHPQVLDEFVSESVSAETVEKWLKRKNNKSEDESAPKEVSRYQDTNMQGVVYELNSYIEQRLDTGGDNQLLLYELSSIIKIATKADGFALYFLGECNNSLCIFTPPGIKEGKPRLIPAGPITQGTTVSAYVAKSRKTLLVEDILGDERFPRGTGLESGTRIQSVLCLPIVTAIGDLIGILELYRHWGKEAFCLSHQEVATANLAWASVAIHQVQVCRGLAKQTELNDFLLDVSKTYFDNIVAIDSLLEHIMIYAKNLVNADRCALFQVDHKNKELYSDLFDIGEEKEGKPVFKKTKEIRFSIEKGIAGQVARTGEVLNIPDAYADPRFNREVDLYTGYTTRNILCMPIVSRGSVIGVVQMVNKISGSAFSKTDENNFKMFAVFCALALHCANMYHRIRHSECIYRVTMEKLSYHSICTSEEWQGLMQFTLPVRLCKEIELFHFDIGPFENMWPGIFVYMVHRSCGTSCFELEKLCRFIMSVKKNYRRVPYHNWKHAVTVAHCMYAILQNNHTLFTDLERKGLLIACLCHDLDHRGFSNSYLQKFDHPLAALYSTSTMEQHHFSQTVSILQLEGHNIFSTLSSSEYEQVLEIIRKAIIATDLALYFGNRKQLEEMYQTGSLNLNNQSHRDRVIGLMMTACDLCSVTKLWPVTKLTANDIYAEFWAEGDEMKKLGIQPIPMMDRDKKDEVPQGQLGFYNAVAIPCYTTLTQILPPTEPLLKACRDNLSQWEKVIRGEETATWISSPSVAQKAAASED
Chain of PDE-2A3 (O00408 2-941): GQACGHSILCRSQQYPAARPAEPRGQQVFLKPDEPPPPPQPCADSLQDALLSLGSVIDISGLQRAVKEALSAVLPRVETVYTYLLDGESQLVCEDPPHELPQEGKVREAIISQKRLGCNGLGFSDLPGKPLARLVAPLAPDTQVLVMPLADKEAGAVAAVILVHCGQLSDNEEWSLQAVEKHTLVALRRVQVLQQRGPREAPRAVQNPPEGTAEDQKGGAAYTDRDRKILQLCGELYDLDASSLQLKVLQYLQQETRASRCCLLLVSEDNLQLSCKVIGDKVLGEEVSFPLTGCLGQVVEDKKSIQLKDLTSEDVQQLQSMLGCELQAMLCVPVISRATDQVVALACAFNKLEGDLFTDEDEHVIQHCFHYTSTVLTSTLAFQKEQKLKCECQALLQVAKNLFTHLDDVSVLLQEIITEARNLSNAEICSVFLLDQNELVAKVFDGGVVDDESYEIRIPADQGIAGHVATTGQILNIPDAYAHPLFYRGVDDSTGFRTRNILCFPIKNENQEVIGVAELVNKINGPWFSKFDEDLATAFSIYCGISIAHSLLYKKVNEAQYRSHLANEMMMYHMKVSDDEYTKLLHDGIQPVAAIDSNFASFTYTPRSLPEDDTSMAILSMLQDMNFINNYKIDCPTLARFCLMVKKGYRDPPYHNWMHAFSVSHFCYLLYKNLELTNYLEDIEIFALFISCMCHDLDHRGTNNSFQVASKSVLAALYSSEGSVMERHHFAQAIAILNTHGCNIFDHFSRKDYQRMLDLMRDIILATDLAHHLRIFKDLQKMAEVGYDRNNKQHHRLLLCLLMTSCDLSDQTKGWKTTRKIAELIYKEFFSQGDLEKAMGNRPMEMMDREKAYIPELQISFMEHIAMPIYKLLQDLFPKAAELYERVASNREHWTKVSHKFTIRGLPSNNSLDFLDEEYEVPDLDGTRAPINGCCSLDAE

Regarding `CCC1C(C)=NN=C(c2ccc(OC)c(OC)c2)c2cc(OC)c(OC)cc21` (racemic) [tofisopam, 1-(3,4-dimethoxyphenyl)-5-ethyl-7,8-dimethoxy-4-methyl-5H-2,3-benzodiazepine], the pIC50 against PDE-4A1 was 6.38; against PDE-2A3, 5.68; on PDE-3A, 5.70; against PDE-10A1, 6.04.

Broadly, the pIC50 is −log10 of the IC50, conventionally taken in molar units. High values mean a low IC50, low ones a high IC50.

The values are drawn from article PMC2993883 (Journal of Neural Transmission, 2010).
